The source of these data is patent US10550100B2, “5-[3-[piperzin-1-yl]-3-oxo-propyl]-imidazolidine-2,4-dione derivatives as ADAMTS 4 and 5 inhibitors for treating E.G. osteoarthritis” (GALAPAGOS NV, priority 2016, dated 2020).

Format in all cases: biochemical
One assay concerns the target human MMP13 (Homo sapiens (Human), UniProt P45452). Nature of the assay: hMMP13 390 MMP FRET Substrate I cleavage assay, Protocol 1. Conditions: Protocol 1, 390 MMP FRET Substrate I; read-out: hMMP-13 potency IC50. On the procedure:
The basis for the assay is the cleavage of the substrate 390 MMP FRET Substrate I (Anaspec Cat# AS-27076) by human MMP13 (Chemicon, Cat#CC068).
Human MMP13 is preactivated by incubated the enzyme in the same buffer complemented with 1 mM freshly prepared p-Aminophenylmercuric acetate (AMPA) for 1 h at 37° C.
(§1) The reaction is initiated by adding to the assay plate 390 MMP FRET Substrate I (10 μL, 2.5 μM) in the same buffer.
Finally, the fluorescence is read on the Envision (Perkin Elmer) after an incubation of 45 min at room temperature (Excitation 485 nm, Emission 530).

Another assay deals with human TACE (Homo sapiens (Human), UniProt P78536). Nature of the assay: hTACE 5FAM-[…]-5TAMRA cleavage assay. Conditions: 75 min at room temperature, read-out: hTACE potency IC50. On the procedure:
Finally, the fluorescence is read on the Envision (Perkin Elmer) after an incubation of 75 min at room temperature (Excitation 485 nm, Emission 530).

For another assay, the target named is human ADAMTS6 (Homo sapiens (Human), UniProt Q9UKP5). Nature of the assay: hADAMTS-6 520 MMP FRET substrate XII cleavage assay. Conditions: 37° C. for 2 h, read-out: hADAMTS-6 potency IC50. An excerpt:
The IC50 value for test compounds can be determined in a fluorescent based protease assay.
The basis for the assay is the cleavage of the substrate 520 MMP FRET substrate XII by human ADAMTS6.
The substrate contains sequence Arg-Pro-Lys-Pro-Tyr-Ala-Nva-Trp-Met-Lys (SEQ ID NO: 7) with attached a fluorescent probe and a quencher. Without ADAMTS6, the emission of the probe is quenched. If the substrate is cleaved by ADAMTS6, the emission of the probe is not quenched anymore. Inhibition of ADAMTS6 activity, will result in a decrease of the signal.
To perform the assay, 4 μL of a dilution series of compound in water, starting from 20 μM highest concentration, 1/5 dilution, is added to the wells. 2 ng ADAMTS6 enzyme is diluted in 25 mM Tris pH8.0, 0.05% CHAPS, 2.5 mM CaCl2 in a total volume of 26 μL (final concentration 0.73 nM). The reaction is started by addition of 10 μL of 1 μM 520 MMP FRET Substrate XII (final concentration, diluted in same buffer as described above) and the mixture is incubated at 37° C. for 2 h. […] After this incubation, cleavage of the substrate is measured using the Envision (Perkin Elmer, exc485/em530).

In another assay the target is human ADAMTS-5 (Homo sapiens (Human), UniProt Q9UNA0). Kind of assay: hADAMTS-5 TBIS-1 cleavage assay, Protocol 3. The conditions noted are these: Protocol 3, TBIS-1 substrate, 90 min at 37° C.; read-out: hADAMTS-5 potency IC50. On the procedure: The reaction is initiated by adding to the assay plate TBIS-1 (10 μL, 4.5 μM, Anaspec) in the same buffer.
Chain of human ADAMTS-5 (Q9UNA0 262-930): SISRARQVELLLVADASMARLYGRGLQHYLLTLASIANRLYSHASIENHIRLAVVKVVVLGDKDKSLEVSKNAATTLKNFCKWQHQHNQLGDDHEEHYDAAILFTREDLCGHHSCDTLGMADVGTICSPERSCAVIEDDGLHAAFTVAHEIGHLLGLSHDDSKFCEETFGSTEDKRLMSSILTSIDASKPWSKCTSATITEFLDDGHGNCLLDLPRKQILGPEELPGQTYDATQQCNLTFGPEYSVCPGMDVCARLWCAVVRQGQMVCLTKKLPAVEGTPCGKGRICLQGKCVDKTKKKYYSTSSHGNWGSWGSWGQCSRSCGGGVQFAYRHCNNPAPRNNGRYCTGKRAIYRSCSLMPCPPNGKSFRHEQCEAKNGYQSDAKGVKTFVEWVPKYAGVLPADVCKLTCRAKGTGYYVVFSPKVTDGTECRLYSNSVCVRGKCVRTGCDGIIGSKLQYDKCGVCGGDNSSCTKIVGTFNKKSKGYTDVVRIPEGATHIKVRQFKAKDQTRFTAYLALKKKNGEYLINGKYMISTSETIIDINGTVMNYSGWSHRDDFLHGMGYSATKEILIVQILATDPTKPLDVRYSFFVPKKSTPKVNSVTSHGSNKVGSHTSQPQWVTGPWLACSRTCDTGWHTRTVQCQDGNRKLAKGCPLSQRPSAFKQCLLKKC
Finally, the fluorescence is read on the Envision (Perkin Elmer) after an incubation of 90 min at 37° C. (Excitation 485 nm, emission 530).

For another assay, the target named is human MMP14 (Homo sapiens (Human), UniProt P50281). Kind of assay: hMMP14 390 MMP FRET Substrate I cleavage assay. The conditions noted are these: 60 min at room temperature, read-out: hMMP-14 potency IC50. On the procedure:
The basis for the assay is the cleavage of the substrate 390 MMP FRET Substrate I (Anaspec Cat# AS-27076) by human MMP14 (Biomol, Cat#SE-259).
as §1
Finally, the fluorescence is read on the Envision (Perkin Elmer) after an incubation of 60 min at room temperature (Excitation 485 nm, Emission 530).

Molecules are shown by their SMILES. Where two headings read alike, the source gives them in different places. Bounds are passed on as bounds.

Chain of human TACE (P78536 215-671): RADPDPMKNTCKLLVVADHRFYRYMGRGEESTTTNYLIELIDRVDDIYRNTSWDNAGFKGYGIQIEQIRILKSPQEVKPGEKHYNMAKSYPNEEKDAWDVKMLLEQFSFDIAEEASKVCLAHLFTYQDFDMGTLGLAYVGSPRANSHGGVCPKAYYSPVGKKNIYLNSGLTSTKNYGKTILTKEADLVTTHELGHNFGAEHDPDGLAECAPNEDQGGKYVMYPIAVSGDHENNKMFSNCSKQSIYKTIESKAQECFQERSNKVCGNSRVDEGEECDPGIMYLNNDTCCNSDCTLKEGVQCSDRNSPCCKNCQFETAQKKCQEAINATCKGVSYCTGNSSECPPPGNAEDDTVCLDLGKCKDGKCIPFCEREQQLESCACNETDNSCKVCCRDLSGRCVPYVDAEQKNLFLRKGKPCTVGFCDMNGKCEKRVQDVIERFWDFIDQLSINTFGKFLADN
Chain of human ADAMTS6 (Q9UKP5 other isoform, or with tags, fused parts or gaps): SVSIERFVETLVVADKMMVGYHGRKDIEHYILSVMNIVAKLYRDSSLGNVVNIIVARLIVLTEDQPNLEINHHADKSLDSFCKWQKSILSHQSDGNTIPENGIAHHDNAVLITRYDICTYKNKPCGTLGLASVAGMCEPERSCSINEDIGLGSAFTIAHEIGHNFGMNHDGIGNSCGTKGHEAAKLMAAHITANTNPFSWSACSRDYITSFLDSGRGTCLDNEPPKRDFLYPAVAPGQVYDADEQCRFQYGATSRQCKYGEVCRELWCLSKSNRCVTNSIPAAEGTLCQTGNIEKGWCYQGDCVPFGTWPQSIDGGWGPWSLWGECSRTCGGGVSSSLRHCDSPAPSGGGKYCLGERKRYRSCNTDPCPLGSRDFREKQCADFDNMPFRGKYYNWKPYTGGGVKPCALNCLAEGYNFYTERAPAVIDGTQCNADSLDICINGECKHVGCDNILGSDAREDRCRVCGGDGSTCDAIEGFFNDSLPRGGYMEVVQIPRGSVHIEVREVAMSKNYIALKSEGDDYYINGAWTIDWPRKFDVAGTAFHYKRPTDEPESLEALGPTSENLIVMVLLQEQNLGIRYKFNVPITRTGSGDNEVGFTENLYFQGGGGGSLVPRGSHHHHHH

For the molecule `COc1cc(C2CCN(C(=O)CCC3(C)NC(=O)NC3=O)CC2)ccc1Cl` (centres unmarked) [Cpd 36, 5-(3-(4-(4-chloro-3-methoxyl-phenyl)piperidin-1-yl)-3-oxopropyl)-5-methyl-imidazolidine-2,4-dione], the IC50 was over 100 nM on human MMP13, over 100 nM at human TACE (5FAM-LAQAVRSSSRK-5TAMRA) and 0.001 to 25 nM at human ADAMTS6.

With `COc1cc(C2CCN(C(=O)CCC3(C)NC(=O)NC3=O)CC2)cc(F)c1F` (centres unmarked) [Cpd 45, 5-(3-(4-(3,4-difluoro-5-methoxyphenyl)piperidin-1-yl)-3-oxopropyl)-5-methyl-imidazolidine-2,4-dione], the half-inhibitory concentration (IC50) on human MMP13 is over 100 nM; on human ADAMTS-5, over 100 nM; on human TACE (5FAM-LAQAVRSSSRK-5TAMRA) it was over 100 nM; on human ADAMTS6, 0.001 to 25 nM.

Regarding `Cc1c(Cl)cc(Cl)cc1C1CCN(C(=O)CCC2(C)NC(=O)NC2=O)CC1` (centres unmarked) [Cpd 49, 5-(3-(4-(3,5-dichloro-2-methylphenyl)piperidin-1-yl)-3-oxopropyl)-5-methyl-imidazolidine-2,4-dione], the concentration for half-maximal inhibition (IC50) was over 100 nM on human MMP13, over 100 nM at human ADAMTS-5, over 100 nM at human TACE (5FAM-LAQAVRSSSRK-5TAMRA) and 25 to 50 nM at human ADAMTS6.

For `COc1cc(C2CCN(C(=O)CC[C@H]3NC(=O)NC3=O)CC2)cc(F)c1F` [Cpd 43, (R)-5-(3-(4-(3,4-difluoro-5-methoxy-phenyl)piperidin-1-yl)-3-oxopropyl) imidazolidine-2,4-dione], the IC50 at human MMP13 was over 100 nM; on human ADAMTS-5, over 100 nM; at human TACE (5FAM-LAQAVRSSSRK-5TAMRA) it was over 100 nM; on human ADAMTS6, 25 to 50 nM.

In the case of `COc1cc(C2CCN(C(=O)CC[C@H]3NC(=O)NC3=O)CC2)c(C)cc1Cl` [Cpd 33, (R)-5-(3-(4-(4-chloro-5-methoxy-2-methylphenyl)piperidin-1-yl)-3-oxopropyl) imidazolidine-2,4-dione], the IC50 was over 100 nM at human MMP13, over 100 nM at human ADAMTS-5, over 100 nM on human TACE (5FAM-LAQAVRSSSRK-5TAMRA) and 25 to 50 nM on human ADAMTS6.

Take `COc1cc(C2CCN(C(=O)CC[C@H]3NC(=O)NC3=O)CC2)ccc1Cl` [Cpd 32, (R)-5-(3-(4-(4-chloro-3-methoxyphenyl)piperidin-1-yl)-3-oxopropyl) imidazolidine-2,4-dione]: the 50% inhibitory concentration (IC50) was over 100 nM on human MMP13, over 100 nM on human ADAMTS-5, over 100 nM at human TACE (5FAM-LAQAVRSSSRK-5TAMRA) and 25 to 50 nM at human ADAMTS6.

On to `COc1cc(Cl)ccc1C1CCN(C(=O)CCC2(C)NC(=O)NC2=O)CC1` (centres unmarked) [Cpd 44, 5-(3-(4-(4-chloro-2-methoxyphenyl)piperidin-1-yl)-3-oxopropyl)-5-methyl-imidazolidine-2,4-dione], for which the IC50 on human MMP13 was over 100 nM; at human MMP14, over 100 nM; at human ADAMTS-5, over 100 nM; at human TACE (5FAM-LAQAVRSSSRK-5TAMRA), over 100 nM; at human ADAMTS6, 0.001 to 25 nM.

As for `O=C1NC(=O)[C@@H](CCC(=O)N2CCC(c3ccc(Cl)c(F)c3)CC2)N1` [Cpd 51, (R)-5-(3-(4-(4-chloro-3-fluorophenyl)piperidin-1-yl)-3-oxopropyl) imidazolidine-2,4-dione], the IC50 was over 100 nM on human MMP13; over 100 nM at human MMP14; over 100 nM on human ADAMTS-5; over 100 nM on human TACE (5FAM-LAQAVRSSSRK-5TAMRA); 50 to 100 nM on human ADAMTS6.

In the case of `COc1cc(C2CCN(C(=O)CC[C@H]3NC(=O)NC3=O)CC2)cc(F)c1Cl` [Cpd 46, (R)-5-(3-(4-(4-chloro-3-fluoro-5-methoxyphenyl)piperidin-1-yl)-3-oxopropyl) imidazolidine-2,4-dione], the IC50 is over 100 nM at human MMP13, 50 to 100 nM on human ADAMTS-5, over 100 nM at human TACE (5FAM-LAQAVRSSSRK-5TAMRA) and 0.001 to 25 nM on human ADAMTS6.

In the case of `COc1cc(C2CCN(C(=O)CCC3(C)NC(=O)NC3=O)CC2)ccc1F` (centres unmarked) [Cpd 55, 5-(3-(4-(4-fluoro-3-methoxyphenyl)piperidin-1-yl)-3-oxopropyl)-5-methyl-imidazolidine-2,4-dione], the IC50 on human MMP13 is over 100 nM; at human MMP14, over 100 nM; at human ADAMTS-5, over 100 nM; at human TACE (5FAM-LAQAVRSSSRK-5TAMRA) it was over 100 nM; on human ADAMTS6, 50 to 100 nM.

As for `Cc1c(Cl)cc(Cl)cc1C1CCN(C(=O)CC[C@H]2NC(=O)NC2=O)CC1` [Cpd 48, (R)-5-(3-(4-(3,5-dichloro-2-methylphenyl)piperidin-1-yl)-3-oxopropyl) imidazolidine-2,4-dione], the IC50 at human MMP13 is over 100 nM; on human ADAMTS-5 it was over 100 nM; at human TACE (5FAM-LAQAVRSSSRK-5TAMRA), over 100 nM; at human ADAMTS6 it was 50 to 100 nM.

Take `COc1cc(OC)cc(C2CCN(C(=O)CCC3(C)NC(=O)NC3=O)CC2)c1` (centres unmarked) [Cpd 38, 5-(3-(4-(3,5-dimethoxy-phenyl)piperidin-1-yl)-3-oxopropyl)-5-methyl-imidazolidine-2,4-dione]: the IC50 at human MMP13 is over 100 nM; on human ADAMTS-5, over 100 nM; on human TACE (5FAM-LAQAVRSSSRK-5TAMRA), over 100 nM; at human ADAMTS6 it was 25 to 50 nM.

Regarding `COc1cc(F)cc(C2CCN(C(=O)CCC3(C)NC(=O)NC3=O)CC2)c1` (centres unmarked) [Cpd 50, 5-(3-(4-(3-fluoro-5-methoxyphenyl)piperidin-1-yl)-3-oxopropyl)-5-methyl-imidazolidine-2,4-dione], the IC50 at human MMP13 was over 100 nM; at human ADAMTS-5, over 100 nM; at human TACE (5FAM-LAQAVRSSSRK-5TAMRA), over 100 nM; on human ADAMTS6 it was 50 to 100 nM.

As to `Cc1ccccc1C1CCN(C(=O)CC[C@H]2NC(=O)NC2=O)CC1` [Cpd 58, (R)-5-(3-oxo-3-(4-o-tolylpiperidin-1-yl)propyl) imidazolidine-2,4-dione], the IC50 on human MMP13, on human ADAMTS-5, on human TACE (5FAM-LAQAVRSSSRK-5TAMRA) and at human ADAMTS6 was over 100 nM each time.

In the case of `COc1cc(OC)cc(C2CCN(C(=O)CC[C@H]3NC(=O)NC3=O)CC2)c1` [Cpd 34, (R)-5-(3-(4-(3,5-dimethoxy-phenyl)piperidin-1-yl)-3-oxopropyl) imidazolidine-2,4-dione], the IC50 was over 100 nM at human MMP13, over 100 nM at human ADAMTS-5, over 100 nM on human TACE (5FAM-LAQAVRSSSRK-5TAMRA) and 50 to 100 nM at human ADAMTS6.

Turning to `CCOc1cc(C2CCN(C(=O)CC[C@H]3NC(=O)NC3=O)CC2)cc(OC)c1Cl` [Cpd 88, (5R)-5-[3-[4-(4-chloro-3-ethoxy-5-methoxy-phenyl)-1-piperidyl]-3-oxo-propyl] imidaz olidine-2,4-dione], the IC50 at human ADAMTS-5 is over 100 nM; on human TACE (5FAM-[…]-5TAMRA), 50 to 100 nM; at human ADAMTS6 it was 0.001 to 25 nM.

Regarding `COc1cc(C2CCN(C(=O)CCC3(C)NC(=O)NC3=O)CC2)cc(F)c1Cl` (centres unmarked) [Cpd 47, 5-(3-(4-(4-chloro-3-fluoro-5-methoxyphenyl)piperidin-1-yl)-3-oxopropyl)-5-methyl-imidazolidine-2,4-dione], the half-inhibitory concentration (IC50) at human MMP13 was over 100 nM; on human TACE (5FAM-LAQAVRSSSRK-5TAMRA), over 100 nM; at human ADAMTS6 it was 0.001 to 25 nM.

Turning to `Cc1ccccc1C1CCN(C(=O)CCC2(C)NC(=O)NC2=O)CC1` (centres unmarked) [Cpd 57, 5-methyl-5-(3-oxo-3-(4-o-tolylpiperidin-1-yl)propyl) imidazolidine-2,4-dione], the IC50 at human MMP13, at human ADAMTS-5, at human TACE (5FAM-LAQAVRSSSRK-5TAMRA) and at human ADAMTS6 was over 100 nM throughout.

As for `COc1ccc(Cl)cc1C1CCN(C(=O)CCC2(C)NC(=O)NC2=O)CC1` (centres unmarked) [Cpd 41, 5-(3-(4-(5-chloro-2-methoxy-phenyl)piperidin-1-yl)-3-oxopropyl)-5-methyl-imidazolidine-2,4-dione], the IC50 at human MMP13 and on human ADAMTS-5 was over 100 nM each time.

The term IC50 denotes the concentration that inhibits the measured activity by half.
